Results taken from patent US6825209B2, “Compounds having unique CB1 receptor binding selectivity and methods for their production and use” (Research Triangle Institute, priority 2002, dated 2004).
Where two headings read alike, the source gives them in different places.

Columns and labels:
[1] = biological target: T1, human CB1 receptor (Homo sapiens, UniProt P21554); assay: Radioligand displacement in human CB1 receptor-transfected cells (HEK-293); type: binding
T1 construct: expressed in transfected cells; host or cells: HEK-293
T1 sequence (P21554 whole entry): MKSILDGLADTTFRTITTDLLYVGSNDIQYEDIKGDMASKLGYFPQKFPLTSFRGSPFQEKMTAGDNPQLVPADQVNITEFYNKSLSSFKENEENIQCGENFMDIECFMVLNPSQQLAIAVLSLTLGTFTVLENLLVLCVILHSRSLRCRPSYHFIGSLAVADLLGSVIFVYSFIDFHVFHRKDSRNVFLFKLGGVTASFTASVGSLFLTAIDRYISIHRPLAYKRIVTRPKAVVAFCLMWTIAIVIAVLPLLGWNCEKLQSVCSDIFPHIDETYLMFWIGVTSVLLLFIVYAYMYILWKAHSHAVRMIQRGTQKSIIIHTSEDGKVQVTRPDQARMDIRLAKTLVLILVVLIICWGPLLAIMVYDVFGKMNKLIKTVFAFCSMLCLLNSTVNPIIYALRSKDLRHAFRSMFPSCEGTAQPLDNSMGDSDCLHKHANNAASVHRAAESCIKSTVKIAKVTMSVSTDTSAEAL
Procedure: Human CB1 receptor affinity. The alkyl amide analogs of the present invention were examined using transfected cell lines expressing the human CB1 receptor (Table 3).
Methods—binding assay in transfected cell lines. The methods used for performing binding assays in transfected cells expressing human CB1 or CB2 receptors are those used above. The CB1 receptor involved a HEK-293 expression system whereas the CB2 receptor was expressed in CHO-K1 cells. […] The incubations and separations were then performed as described above for rat brain membrane preparations.
(§1) Data analysis. Saturation and displacement data were analyzed by unweighted nonlinear regression of receptor binding data. For displacement studies, curve-fitting and IC50 calculation were done with GraphPad Prism (GraphPad Software, Inc., San Diego, Calif.), which fits the data to one and two-site models and compares the two fits statistically. A similar approach was used for the analysis of isotherm data for calculation of Kd's. A two-site fit was accepted only if it was statistically significant (p<0.05) and the following results were not observed:
(§2) IC50 values were then converted to Ki values by reported methods (Cheng and Prusoff, 1973). The statistical evaluation of curve-fitting data allowed for a non-arbitrary conclusion based on the displacement data.

[2] = biological target: T2, CB1 receptor (Rattus norvegicus, UniProt P20272); assay: Radioligand displacement in whole rat brain (CB1) membrane preparations; type: binding; conditions: Table 4, parallel synthesis analogs; for Ki: n = 1, concentration assumes 100% yield; for Max. Disp. %, 3H-SR141716A / Max. Disp. %, 3H-WIN55212-2 / Max. Disp. %, 3H-CP55940: n = 1
T2 construct: Whole rat brains or dissected regions from live CD rats; tissue Charles River or Pel-Freez Biologicals; host or cells: whole rat brain (CD rats), P2 membrane
T2 sequence (P20272 whole entry): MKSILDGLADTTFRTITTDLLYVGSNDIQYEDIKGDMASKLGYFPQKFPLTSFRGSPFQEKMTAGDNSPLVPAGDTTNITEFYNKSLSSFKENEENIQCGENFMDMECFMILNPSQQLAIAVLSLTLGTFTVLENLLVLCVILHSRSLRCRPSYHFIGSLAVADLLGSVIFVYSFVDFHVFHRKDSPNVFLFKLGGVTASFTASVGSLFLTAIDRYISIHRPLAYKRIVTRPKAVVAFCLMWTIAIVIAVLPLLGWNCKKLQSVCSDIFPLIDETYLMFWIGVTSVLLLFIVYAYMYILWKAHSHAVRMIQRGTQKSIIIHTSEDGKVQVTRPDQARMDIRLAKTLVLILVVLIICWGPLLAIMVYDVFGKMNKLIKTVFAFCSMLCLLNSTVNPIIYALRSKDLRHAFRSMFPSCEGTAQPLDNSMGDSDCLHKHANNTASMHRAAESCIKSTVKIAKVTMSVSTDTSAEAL
Source text: CB1 receptor affinity in rat brain.
Methods—membrane preparation from brain. The methods for tissue preparation are essentially those described by Devane et al. (1988) as modified by Compton et al. (1993) and later by Thomas et al. (1998). Whole rat brains or dissected regions from live CD rats from Charles River or Pel-Freez Biologicals (Rogers, Ark.), or human brain sections obtained from the National Disease Research Institute, were allowed to thaw to room temperature on ice. Both whole brain and dissected brain regions were used because different brain regions may express different cannabinoid receptor subtypes (Skaper et al., 1996; Thomas et al., 1998). The tissue was homogenized with a Kontes Potter-Elvehjem glass-Teflon grinding system (Fisher Scientific, Springfield, N.J.) in buffer 1 (320 mM sucrose, 2 mM EDTA, 5 mM MgCl2. The homogenate was centrifuged at 1600 g for 10 min. The supernatant was saved and combined with the two subsequent supernatants obtained from washing and 1600 g centrifugation of the P1 pellet. The combined supernatant fractions were then centrifuged at 39,000 g for 15 min. The P2 pellet was resuspended in 50 mL of buffer 2 (50 mM Tris.HCl, 2 mM EDTA, 5 mM MgCl2, pH 7.0), incubated at 37° C. for 10 min, then centrifuged at 23,000 g for 10 min. The P2 membrane was resuspended in 50 mL of buffer 2, incubated at 30° C. for 40 min, then centrifuged at 11,000 g for 15 min. The final wash-treated P2 pellet was resuspended in assay buffer 3 (50 mM Tris.HCl, 1 mM EDTA, 3 MM MgCl2, pH 7.4). Protein concentrations were determined by the method of Bradford (1976) using Coomassie brilliant blue dye (Bio-Rad, Richmond, Calif.) and BSA standards (bovine serum albumin, fatty acid free, Sigma Chemical Co., St. Louis, Mo.) prepared in assay buffer 3. The membrane preparation was divided into aliquots and stored at −80° C. For use in the binding assay, an aliquot of frozen membranes was thawed on ice and diluted to a concentration of ca. 0.2 mg/mL in assay buffer.
Methods—binding assay in brain membrane preparation. The methods for ligand binding are essentially those described by Devane et al. (1988) with the exception that we used a filtration assay. […] All cannabinoid analogs were prepared by suspension in buffer A from a 1-5 mg/mL ethanolic stock. Following incubation at 30° C. for 1 h, binding was terminated by vacuum filtration through pretreated filters in a 96-well sampling manifold (Millipore, Bedford, Mass.). Reaction vessels were washed at least 3 times with 1 mL of ice cold buffer B (50 mM Tris.HCl, 1 mg/mL BSA). The filter plates were air-dried and sealed on the bottom. Liquid scintillant was added to the wells and the top sealed. After incubating the plates in cocktail for at least 2 h, the radioactivity present was determined by liquid scintillation spectrometry. Assays were done in duplicate, and results represent the combined data of three to six independent experiments. All assays were performed in polypropylene test tubes. The GF/C glassfiber filter plates (Packard, Meriden, Conn.) were pretreated in buffer B for at least 1 h.
as §1, §2

[3] = displacement of 3H-CP55940, human CB1 transfected cells, 3H-CP55940, Table 5, parallel synthesis analogs, concentration assumes 100% yield
[4] = displacement of 3H-SR141716A, human CB1 transfected cells, 3H-SR141716A, Table 5, parallel synthesis analogs, concentration assumes 100% yield
[5] = displacement of 3H-WIN55212-2, human CB1 transfected cells, 3H-WIN55212-2, Table 5, parallel synthesis analogs, concentration assumes 100% yield
[6] = human CB1 transfected cells, 3H-CP55940, Table 5, parallel synthesis analogs
[7] = human CB1 transfected cells, 3H-SR141716A, Table 5, parallel synthesis analogs
[8] = human CB1 transfected cells, 3H-WIN55212-2, Table 5, parallel synthesis analogs
[9] = displacement of 3H-CP55940, whole rat brain, 3H-CP55940
[10] = displacement of 3H-SR141716A, whole rat brain, 3H-SR141716A
[11] = displacement of 3H-WIN55212-2, whole rat brain, 3H-WIN55212-2

Row | Ki [1, 3] [nM] | Ki [1, 4] [nM] | Ki [1, 5] [nM] | Max. Disp. %, 3H-CP55940 [1, 6] [%] | Max. Disp. %, 3H-SR141716A [1, 7] [%] | Max. Disp. %, 3H-WIN55212-2 [1, 8] [%] | Ki [2, 9] [nM] | Ki [2, 10] [nM] | Ki [2, 11] [nM] | Max. Disp. %, 3H-SR141716A ([2]; whole rat brain, 3H-SR141716A) [%] | Max. Disp. %, 3H-WIN55212-2 ([2]; whole rat brain, 3H-WIN55212-2) [%] | Max. Disp. %, 3H-CP55940 ([2]; whole rat brain, 3H-CP55940) [%] | SMILES | Max. Disp. %, 3H-CP55940 [1] [%] | Max. Disp. %, 3H-SR141716A [1] [%] | Max. Disp. %, 3H-WIN55212-2 [1] [%] | Ki ([1]; displacement of 3H-CP55940) [nM] | Ki ([1]; displacement of 3H-SR141716A) [nM] | Ki ([1]; displacement of 3H-WIN55212-2) [nM]
1 | 106 | 13.6 | 162 | 96.1 | 99.5 | 100 | 71.4 | 29.8 | 326 | 100 | 94.9 | 84.7 | Cc1c(C(=O)NCCc2ccc(O)cc2)nn(-c2ccc(Cl)cc2Cl)c1-c1ccc(Cl)cc1 [AM-52] |  |  |  |  |  | 
2 | 220 | 101 | 128 | 62.6 | 87.3 | 68.1 | 91 | 11.8 | 30.4 | 95.4 | 85.8 | 96.4 | COc1ccc(NC(=O)c2nn(-c3ccc(Cl)cc3Cl)c(-c3ccc(Cl)cc3)c2C)cc1 [AN-2] |  |  |  |  |  | 
3 | 176 | 43.5 | 13.8 | 79.5 | 89.8 | 31.4 | 109 | 53.7 | 238 | 95.6 | 56.5 | 82.6 | CCCCCCCCCCCCNC(=O)c1nn(-c2ccc(Cl)cc2Cl)c(-c2ccc(Cl)cc2)c1C [BT-2] |  |  |  |  |  | 

The remaining lines, values behind:

Row | SMILES | Ki [1, 3] [nM] | Ki [1, 4] [nM] | Ki [1, 5] [nM] | Max. Disp. %, 3H-CP55940 [1, 6] [%] | Max. Disp. %, 3H-SR141716A [1, 7] [%] | Max. Disp. %, 3H-WIN55212-2 [1, 8] [%] | Ki [2, 9] [nM] | Ki [2, 10] [nM] | Ki [2, 11] [nM] | Max. Disp. %, 3H-SR141716A ([2]; whole rat brain, 3H-SR141716A) [%] | Max. Disp. %, 3H-WIN55212-2 ([2]; whole rat brain, 3H-WIN55212-2) [%] | Max. Disp. %, 3H-CP55940 ([2]; whole rat brain, 3H-CP55940) [%] | Max. Disp. %, 3H-CP55940 [1] [%] | Max. Disp. %, 3H-SR141716A [1] [%] | Max. Disp. %, 3H-WIN55212-2 [1] [%] | Ki ([1]; displacement of 3H-CP55940) [nM] | Ki ([1]; displacement of 3H-SR141716A) [nM] | Ki ([1]; displacement of 3H-WIN55212-2) [nM]
4 | Cc1c(C(=O)NC(C)Cc2ccc(Cl)cc2)nn(-c2ccc(Cl)cc2Cl)c1-c1ccc(Cl)cc1 (centres unmarked) [AKS-10262-10] | 22.9 | 2.38 | 70.2 | 94.8 | 100 | 65.5 | 18.4 | 2.7 | 10.1 | 95.9 | 86.1 |  |  |  |  |  |  | 
5 | COCC(C)NC(=O)c1nn(-c2ccc(Cl)cc2Cl)c(-c2ccc(Cl)cc2)c1C (centres unmarked) [AM-17] | 39.8 | 17.6 | 30.9 | 86.3 | 98.7 | 96.8 | 64.4 | 22.8 | 22.6 | 94.1 | 84.8 | 96.2 |  |  |  |  |  | 
6 | Cc1c(C(=O)N2CCC(O)(c3ccccc3)CC2)nn(-c2ccc(Cl)cc2Cl)c1-c1ccc(Cl)cc1 [AM-28] | 52.1 | 28.2 | 56.9 | 79.6 | 99.2 | 100 | 113 | 41.2 | 69.5 | 97.2 | 94.4 | 97.2 |  |  |  |  |  | 
7 | COc1ccc(CCNC(=O)c2nn(-c3ccc(Cl)cc3Cl)c(-c3ccc(Cl)cc3)c2C)cc1 [AM-29] | 56.9 | 16.1 | 74.5 | 80.3 | 96.3 | 100 | 92.6 | 40.7 | 24.7 | 95.1 | 82.7 | 78.8 |  |  |  |  |  | 
8 | Cc1c(C(=O)N2CCc3ccccc3C2)nn(-c2ccc(Cl)cc2Cl)c1-c1ccc(Cl)cc1 [AM-50] | 57.7 | 21 | 166 | 66.3 | 90.4 | 74.6 | 194 | 44.6 | 152 | 90.5 | 89.0 | 88.3 |  |  |  |  |  | 
9 | CCCCCCCCCCNC(=O)c1nn(-c2ccc(Cl)cc2Cl)c(-c2ccc(Cl)cc2)c1C [BT-1] |  |  |  |  |  |  | 92.8 | 45 | 1390 | 92.5 | 67.4 | 83.6 | 94.5 | 95.4 | 12.4 | 184 | 24.6 | 63.8
